Values of other authors in patent US20190279737A1, “METHOD OF DISCOVERING NEW DRUG CANDIDATE TARGETING DISORDER-TO-ORDER TRANSITION REGION AND APPARATUS FOR DISCOVERING NEW DRUG CANDIDATE” (INDUSTRY-UNIVERSITY COOPERATION FOUNDATION HANYANG …, priority 2016, published 2019).

Target: Myc (Homo sapiens, UniProt P01106)
Conditions: Follis et al. 2008

Sequence of Myc (P01106 16-454, species assumed): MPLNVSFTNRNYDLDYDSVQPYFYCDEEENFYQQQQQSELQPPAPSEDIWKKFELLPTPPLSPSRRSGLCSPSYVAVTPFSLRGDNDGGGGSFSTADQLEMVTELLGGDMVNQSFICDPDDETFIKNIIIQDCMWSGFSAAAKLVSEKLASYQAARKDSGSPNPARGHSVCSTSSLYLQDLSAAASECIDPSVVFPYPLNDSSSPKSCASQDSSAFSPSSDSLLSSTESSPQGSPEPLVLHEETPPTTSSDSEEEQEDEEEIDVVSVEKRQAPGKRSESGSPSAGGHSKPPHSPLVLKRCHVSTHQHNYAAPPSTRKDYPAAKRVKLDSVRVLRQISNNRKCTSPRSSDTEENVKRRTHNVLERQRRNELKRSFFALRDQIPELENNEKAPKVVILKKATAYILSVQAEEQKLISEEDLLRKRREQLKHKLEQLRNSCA

For CCc1ccc(/C=C2/SC(=S)NC2=O)cc1 [10058-F4], the “region of Myc bound” value is given as “specifically binds to a 402-412 region of Myc”.
